Consider ten compounds from publication PMC8729037 (European journal of pharmacology, 2019).

Experiment [1] has as its system c-Src, β-catenin, PYK-2 and the EGFR. The settings on record: A549 cells; ref Moody et al., 2014; cited from earlier work.
Experiment [2] deals with neurotensin receptor 1. The settings on record: colorectal cancer; ref Wang et al., 2010; cited from earlier work.
Experiment [3] addresses neurotensin receptor 1 (Homo sapiens, UniProt P30989). Put plainly: Receptor binding, inhibition of specific.
Experiment [4] deals with EGFR. Put plainly: Western blot, EGFR tyrosine phosphorylation. Particulars: 100 nM NTS; for Inhibition of NTS-induced EGFR tyrosine phosphorylation (in words): 5 μM DPI or 5 mM Tiron, NCI-H838, Fig. 5; for Effect on NTS-induced EGFR tyrosine phosphorylation (in words): Fig. 6. It is filed as cell-based, human.
Experiment [5] relates to EGFR. Particulars: NSCLC cell lines; ref Moody et al., 2014; cited from earlier work.
In experiment [6] the test system is HER2. Put plainly: Western blot, HER2 tyrosine phosphorylation. The settings on record: 100 nM NTS; for Inhibition of NTS-induced HER2 tyrosine phosphorylation (in words): 5 μM DPI or 5 mM Tiron, NCI-H838, Fig. 5. It is filed as cell-based, human.
For experiment [7], the system named is ERK. In words: Western blot, ERK tyrosine phosphorylation. It counts as cell-based, human. The settings on record: 100 nM NTS; for Inhibition of NTS-induced ERK tyrosine phosphorylation (in words): 5 μM DPI or 5 mM Tiron, NCI-H838, Fig. 5.
Experiment [8] has as its system PC-3M prostate cancer cells. The settings on record: ref Valerie et al., 2011; cited from earlier work.
Experiment [9] has as its system Nox and Duox enzymes. The settings on record: ref Moody et al., 2018; Doroshow et al., 2012; cited from earlier work.
Experiment [10] relates to tubulin. Put plainly: Western blot, total tubulin. It is filed as cell-based, human. The settings on record: lapatinib; control; Fig. 6.
Experiment [11] concerns NCI-H838 cells. Put plainly: MTT proliferation assay, NCI-H838 cells. Particulars: lapatinib combined with SR48692, Fig. 7.

Chain of neurotensin receptor 1 (Homo sapiens, UniProt P30989) (P30989 whole entry): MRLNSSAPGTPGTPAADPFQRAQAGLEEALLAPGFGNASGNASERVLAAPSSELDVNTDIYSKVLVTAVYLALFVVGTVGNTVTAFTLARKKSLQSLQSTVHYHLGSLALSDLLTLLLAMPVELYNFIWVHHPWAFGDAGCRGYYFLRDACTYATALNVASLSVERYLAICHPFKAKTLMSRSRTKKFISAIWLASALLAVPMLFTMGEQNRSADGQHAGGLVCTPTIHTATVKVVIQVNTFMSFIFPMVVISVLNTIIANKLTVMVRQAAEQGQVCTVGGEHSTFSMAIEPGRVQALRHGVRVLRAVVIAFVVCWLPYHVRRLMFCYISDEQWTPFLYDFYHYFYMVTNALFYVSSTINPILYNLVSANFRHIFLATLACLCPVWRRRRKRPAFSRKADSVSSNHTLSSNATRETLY

Consider `CNC(=O)[C@H](Cc1c[nH]c2ccccc12)NC(=O)[C@@H](CC(=O)NO)CC(C)C` [GM6001], for which, in [1], the “Effect on neurotensin-induced EGFR tyrosine phosphorylation (in words)” value is listed as “blocked”.
For `CCCC(=O)[O-].[Na+]` [Sodium butyrate], the “Neurotensin receptor 1 densities (in words)” value in experiment [2] is “reduced”.
The compound `COc1cc2ncnc(Nc3ccc(F)c(Cl)c3)c2cc1OCCCN1CCOCC1` [Gefitinib] displayed an IC50 in experiment [3] above 2000 nM.
Consider `O=S(=O)(O)c1cc(O)c(O)c(S(=O)(=O)O)c1` [Tiron], for which the “Inhibition of NTS-induced EGFR tyrosine phosphorylation (in words)” value in [4] is on record as “significantly inhibited”. In addition, the “Effect on neurotensin-induced EGFR tyrosine phosphorylation (in words)” value in experiment [5] is on record as “reduced”. Besides, the “Inhibition of NTS-induced HER2 tyrosine phosphorylation (in words)” value in experiment [6] is “significantly inhibited”. Moreover, the “Inhibition of NTS-induced ERK tyrosine phosphorylation (in words)” value in [7] was “significantly inhibited”.
As to `CC(C)(C)n1nc(-c2ccc(Cl)cc2)c2c(N)ncnc21` [PP2], the “Effect on neurotensin-induced EGFR tyrosine phosphorylation (in words)” value in experiment [1] is listed as “blocked”.
`COc1ccc2c(c1)CC[C@@H]1[C@@H]2CC[C@]2(C)[C@@H](NCCCCCCN3C(=O)C=CC3=O)CC[C@@H]12` [U73122]: the “Effect on neurotensin-induced EGFR tyrosine phosphorylation (in words)” value in [1] is reported as “blocked”.
Regarding `COc1cccc(OC)c1-c1cc(C(=O)NC2(C(=O)O)C3CC4CC(C3)CC2C4)nn1-c1ccnc2cc(Cl)ccc12` (stereo not drawn) [SR48692], the “Effect on neurotensin-induced EGFR tyrosine phosphorylation (in words)” value in [5] is reported as “reduced”. In addition, in [8], the “Sensitivity to ionizing radiation (in words)” value is “enhanced sensitivity to ionizing radiation”. Besides, the IC50 in experiment [3] was found to be 160 ± 25 nM.
Regarding `C[C@@H]1CN([C@H]2CC[C@](C#N)(c3ccc(F)cc3)CC2)CC[C@]1(C(=O)O)c1ccccc1` [Levocabastine], the IC50 in experiment [3] is above 2000 nM.
For `c1ccc2c(c1)[I+]c1ccccc1-2` [DPI, diphenylene iodonium], the “Inhibition of NTS-induced EGFR tyrosine phosphorylation (in words)” value in experiment [4] is on record as “significantly inhibited”. In experiment [6], the “Inhibition of NTS-induced HER2 tyrosine phosphorylation (in words)” value was “significantly inhibited”. Further, in experiment [7], the “Inhibition of NTS-induced ERK tyrosine phosphorylation (in words)” value is “significantly inhibited”. For the same compound, the “Inhibition of Nox and Duox enzymes (in words)” value in experiment [9] is “inhibits all Nox and Duox enzymes”.
As for `CS(=O)(=O)CCNCc1ccc(-c2ccc3ncnc(Nc4ccc(OCc5cccc(F)c5)c(Cl)c4)c3c2)o1` [Lapatinib], the “Effect on NTS-induced EGFR tyrosine phosphorylation (in words)” value is recorded as “impaired” in [4] (0.1 μM lapatinib) and “significantly reduced” in experiment [4] (1 or 10 μM lapatinib). For the same compound, the “Effect on total tubulin (in words)” value in [10] is reported as “no effect”. Also, the “Effect on NTS-induced HER2 tyrosine phosphorylation (in words)” value in [6] (1 or 10 μM lapatinib, Fig. 6) is “significantly reduced”. In addition, in experiment [11], the “Shift of SR48692 dose-response curve (in words)” value is “shifted the SR48692 dose-response curve to the left”. The compound further had an IC50 in [3] above 2000 nM. Moreover, in [7] (1 or 10 μM lapatinib, Fig. 6), the “Effect on NTS-induced ERK tyrosine phosphorylation (in words)” value was “significantly reduced”.
